Data set [1] can be described thus: Liver microsome stability, rat. Type of data set: in vitro ADME. The settings on record: liver microsomes. As to the method: (§1) • Compounds: Ketanserin, Formula 18, Formula 45 • Liver microsomes: Human liver microsomes (purchased from BioreclamationIVT); Dog, mouse, rat, and monkey liver microsomes (purchased from Xenotech)
(§2) Preparation of 500 μM compound solution: Add 5 μL of 10 mM compound solution and 95 μL of DMSO to an EP tube.
(§3) Preparation of solution containing 0.75 mg/mL liver microsomes and 1.5 μM compound: Add 1.5 μL of the 500 μM compound solution, 18.75 μL of the 20 mg/mL liver microsome solution, and 479.75 μL of PBS to an EP tube.
(§4) Preparation of 6 mM NADPH solution: Dissolve 5 mg of NADPH in 1 mL of PBS solution.
(§5) Add 30 μL of the solution containing 0.75 mg/mL liver microsomes and a concentration gradient of the compound to a 96-well plate. Add 15 μL of the 6 mM NADPH solution and 150 μL of a 1:1 acetonitrile:methanol solution containing an internal standard (IS). Vortex and centrifuge at 6,000 rpm for 10 min. 80 μL of the supernatant from each concentration sample is transferred to a 96-well plate containing 140 μL of pure water for LC/MS detection (injection volume of […]). […]
(§6) 80 μL of the supernatant from each well is transferred to a 96-well plate containing 140 μL of pure water for LC/MS detection (injection volume of […]). The compound concentration value is determined by comparing the corresponding mass spectrometry peak area with the standard curve. […]
(In general: Liver microsomes are a subcellular fraction often used to study metabolism.)

Data set [2] can be described thus: Liver microsome stability, dog. Type of data set: in vitro ADME. As to conditions: liver microsomes. Here is the method: as §1, §2, §3, §4, §5, §6
A short description of data set [3]: Liver microsome stability, human. As to conditions: liver microsomes. Type of data set: in vitro ADME. As to the method: as §1, §2, §3, §4, §5, §6
Data set [4] is described as follows: Liver microsome stability, monkey. As to conditions: liver microsomes. Type of data set: in vitro ADME. Here is the method:
as §1, §2, §3, §4, §5, §6

Data set [5] has as its target T1, CDK13 (Homo sapiens, UniProt Q14004). The data set can be described thus: Western blot degradation of CDK13 (Example 2). Format: cell-based. Details: degradation of CDK12/13 protein in leukemia cells KASUMI-1, MV4-11, and Jurkat; endogenous in cells. As to conditions: DC50 classes; cell line not given; read-out: CDK13 degradation Activity. (In general: A western blot detects proteins with antibodies after separation by electrophoresis.)

Data set [6] has as its target T2, CDK12 (Homo sapiens, UniProt Q9NYV4). The data set can be described thus: Western blot degradation of CDK12 (Example 2). Set-up: degradation of CDK12/13 protein in leukemia cells KASUMI-1, MV4-11, and Jurkat; endogenous in cells. The settings on record: DC50 classes; cell line not given; read-out: CDK12 degradation Activity. Type of data set: cell-based. The method, boiled down:
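Leukemia lines KASUMI-1, MV4-11, Jurkat, plus MDA-MB-231 for a concentration series, treated at 0.01–3 μM for 3–48 h at 37 °C against DMSO control. Lysates in 4% SDS; CDK12/13 band intensity normalized to β-Actin or GAPDH to give degradation rate.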

For data set [7], the target named is T2, CDK12. The data set can be described thus: Western blot degradation of CDK12 (Example 3). Details: degradation of CDK12/13 protein in leukemia cells KASUMI-1, MV4-11, and Jurkat; endogenous in cells. Type of data set: cell-based.
Data set [8] deals with CCNK. Nature of the data set: Reversal of CCNK degradation by proteasome inhibitor MG132, Western blot. As to conditions: MDA-MB-231, 24 h treatment, MG132 added 12 h before sample collection. Format: cell-based. Here is the method:
(§7) • Cell lines: HCT-116, Jurkat, or MDA-MB-231 • Culture medium: DMEM/RIPM-1640+10% Hyclone serum • Compound dissolution method: The compounds (small molecule conjugates as shown in Formulae 101-147, MG132) were dissolved in DMSO to prepare a 50 mM stock solution and then diluted to the corresponding concentrations.
(§8) (3) Compound treatment: The 50 mM compound stock solution was diluted with cell culture medium to a final concentration of 0.01 μM-3 μM. Cells were incubated in a 37 °C incubator with 5% CO2 for 3 h-48 h. The DMSO group served as the negative control.
In the figures, CDK12, CDK13, and CCNK are the target proteins under study, and β-Actin and GAPDH are the internal reference proteins. Internal reference proteins are used to indicate the total protein amount in each experimental group for quantitative analysis.

The target of data set [9] is T1, CDK13. Nature of the data set: Western blot degradation of CDK13 (Example 3). Type of data set: cell-based. Details: degradation of CDK12/13 protein in leukemia cells KASUMI-1, MV4-11, and Jurkat; endogenous in cells.
Data set [10] addresses T1, CDK13. Nature of the data set: Reversal of CDK13 degradation by proteasome inhibitor MG132, Western blot. Format: cell-based. Set-up: endogenous in cells. The settings on record: MDA-MB-231, 24 h treatment, MG132 added 12 h before sample collection. Here is the method: as §7, §8
Data set [11] addresses T2, CDK12. Nature of the data set: Reversal of CDK12 degradation by proteasome inhibitor MG132, Western blot. The settings on record: MDA-MB-231, 24 h treatment, MG132 added 12 h before sample collection. Format: cell-based. Details: endogenous in cells. As to the method: as §7, §8
The test system of data set [12] is serine 2 in the C-terminal domain of RNA polymerase II (CTD-pSer2). The data set can be described thus: Phosphorylation of serine 2 in the C-terminal domain of RNA polymerase II, Western blot. Type of data set: cell-based. As to conditions: MDA-MB-231, 24 h, concentration gradient. Here is the method:
Protein Western blot was used to determine the degradation of CDK12/13 protein in colorectal cancer cells HCT-116, breast cancer cells MDA-MB-231, and leukemia cells Jurkat. The two compounds with the best degradation effects were further validated for their ability to degrade CDK12/13 protein in MDA-MB-231 cells using a concentration gradient. The effect of the compounds on the phosphorylation of serine 2 in the C-terminal domain of RNA polymerase II (CTD-pSer2) was also measured.
as §8

[13] abbreviates: DC50 classes, cell line not given, read-out: CDK12 degradation Activity.
The mark [14] stands for this setting: DC50 classes, cell line not given, read-out: CDK13 degradation Activity.

T1 sequence (Q14004 whole entry): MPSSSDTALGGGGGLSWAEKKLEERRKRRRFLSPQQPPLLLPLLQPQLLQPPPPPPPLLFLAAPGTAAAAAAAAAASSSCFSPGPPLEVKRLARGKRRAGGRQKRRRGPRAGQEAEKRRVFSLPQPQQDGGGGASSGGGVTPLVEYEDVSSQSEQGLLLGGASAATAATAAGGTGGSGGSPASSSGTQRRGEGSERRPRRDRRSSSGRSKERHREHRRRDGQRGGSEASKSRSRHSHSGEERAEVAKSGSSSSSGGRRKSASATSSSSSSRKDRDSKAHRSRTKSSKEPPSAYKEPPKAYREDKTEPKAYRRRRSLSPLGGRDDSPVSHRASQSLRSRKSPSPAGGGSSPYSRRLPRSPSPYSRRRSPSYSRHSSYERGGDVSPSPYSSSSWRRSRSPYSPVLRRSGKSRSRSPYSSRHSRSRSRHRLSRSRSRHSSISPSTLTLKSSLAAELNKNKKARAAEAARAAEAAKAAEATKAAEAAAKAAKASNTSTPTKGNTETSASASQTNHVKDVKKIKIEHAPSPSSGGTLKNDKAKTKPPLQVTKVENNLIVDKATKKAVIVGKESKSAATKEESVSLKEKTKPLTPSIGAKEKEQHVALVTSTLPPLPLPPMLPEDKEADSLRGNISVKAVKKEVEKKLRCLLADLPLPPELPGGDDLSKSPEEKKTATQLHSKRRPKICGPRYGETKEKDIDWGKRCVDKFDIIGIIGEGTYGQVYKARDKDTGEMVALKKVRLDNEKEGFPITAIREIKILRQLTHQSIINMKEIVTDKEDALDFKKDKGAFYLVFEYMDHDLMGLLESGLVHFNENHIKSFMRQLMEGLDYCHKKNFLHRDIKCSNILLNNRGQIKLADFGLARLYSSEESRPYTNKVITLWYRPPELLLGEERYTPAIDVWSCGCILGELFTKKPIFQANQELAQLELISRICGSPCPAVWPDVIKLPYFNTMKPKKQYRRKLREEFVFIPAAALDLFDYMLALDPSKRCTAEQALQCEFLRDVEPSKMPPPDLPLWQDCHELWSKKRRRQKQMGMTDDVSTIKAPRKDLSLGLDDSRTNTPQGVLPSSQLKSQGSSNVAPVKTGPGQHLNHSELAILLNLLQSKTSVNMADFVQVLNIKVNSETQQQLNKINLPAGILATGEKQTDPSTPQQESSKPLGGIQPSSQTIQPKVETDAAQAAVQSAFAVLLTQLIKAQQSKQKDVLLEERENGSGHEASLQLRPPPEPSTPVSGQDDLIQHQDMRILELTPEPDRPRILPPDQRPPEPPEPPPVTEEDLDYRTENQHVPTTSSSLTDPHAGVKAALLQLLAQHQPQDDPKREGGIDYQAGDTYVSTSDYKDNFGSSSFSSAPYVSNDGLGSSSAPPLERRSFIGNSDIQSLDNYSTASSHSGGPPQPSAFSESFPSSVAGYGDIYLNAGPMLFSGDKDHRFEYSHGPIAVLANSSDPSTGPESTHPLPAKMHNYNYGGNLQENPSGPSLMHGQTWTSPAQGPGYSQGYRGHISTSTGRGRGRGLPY
T1 sequence (O75909 whole entry partner): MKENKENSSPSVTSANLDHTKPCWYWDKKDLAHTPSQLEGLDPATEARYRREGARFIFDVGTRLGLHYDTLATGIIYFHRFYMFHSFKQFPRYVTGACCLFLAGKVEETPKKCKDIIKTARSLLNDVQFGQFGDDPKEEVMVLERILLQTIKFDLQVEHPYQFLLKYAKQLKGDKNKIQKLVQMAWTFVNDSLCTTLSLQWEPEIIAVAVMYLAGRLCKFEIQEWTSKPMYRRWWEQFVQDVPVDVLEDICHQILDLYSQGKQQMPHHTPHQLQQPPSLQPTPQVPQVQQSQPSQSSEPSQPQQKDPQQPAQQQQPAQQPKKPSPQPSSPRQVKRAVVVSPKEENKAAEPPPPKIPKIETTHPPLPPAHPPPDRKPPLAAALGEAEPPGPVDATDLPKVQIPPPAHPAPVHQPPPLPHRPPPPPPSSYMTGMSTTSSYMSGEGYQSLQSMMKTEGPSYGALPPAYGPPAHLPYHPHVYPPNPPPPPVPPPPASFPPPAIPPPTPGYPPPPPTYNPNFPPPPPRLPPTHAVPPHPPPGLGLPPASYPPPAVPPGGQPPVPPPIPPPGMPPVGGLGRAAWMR
T2 sequence (Q9NYV4 whole entry): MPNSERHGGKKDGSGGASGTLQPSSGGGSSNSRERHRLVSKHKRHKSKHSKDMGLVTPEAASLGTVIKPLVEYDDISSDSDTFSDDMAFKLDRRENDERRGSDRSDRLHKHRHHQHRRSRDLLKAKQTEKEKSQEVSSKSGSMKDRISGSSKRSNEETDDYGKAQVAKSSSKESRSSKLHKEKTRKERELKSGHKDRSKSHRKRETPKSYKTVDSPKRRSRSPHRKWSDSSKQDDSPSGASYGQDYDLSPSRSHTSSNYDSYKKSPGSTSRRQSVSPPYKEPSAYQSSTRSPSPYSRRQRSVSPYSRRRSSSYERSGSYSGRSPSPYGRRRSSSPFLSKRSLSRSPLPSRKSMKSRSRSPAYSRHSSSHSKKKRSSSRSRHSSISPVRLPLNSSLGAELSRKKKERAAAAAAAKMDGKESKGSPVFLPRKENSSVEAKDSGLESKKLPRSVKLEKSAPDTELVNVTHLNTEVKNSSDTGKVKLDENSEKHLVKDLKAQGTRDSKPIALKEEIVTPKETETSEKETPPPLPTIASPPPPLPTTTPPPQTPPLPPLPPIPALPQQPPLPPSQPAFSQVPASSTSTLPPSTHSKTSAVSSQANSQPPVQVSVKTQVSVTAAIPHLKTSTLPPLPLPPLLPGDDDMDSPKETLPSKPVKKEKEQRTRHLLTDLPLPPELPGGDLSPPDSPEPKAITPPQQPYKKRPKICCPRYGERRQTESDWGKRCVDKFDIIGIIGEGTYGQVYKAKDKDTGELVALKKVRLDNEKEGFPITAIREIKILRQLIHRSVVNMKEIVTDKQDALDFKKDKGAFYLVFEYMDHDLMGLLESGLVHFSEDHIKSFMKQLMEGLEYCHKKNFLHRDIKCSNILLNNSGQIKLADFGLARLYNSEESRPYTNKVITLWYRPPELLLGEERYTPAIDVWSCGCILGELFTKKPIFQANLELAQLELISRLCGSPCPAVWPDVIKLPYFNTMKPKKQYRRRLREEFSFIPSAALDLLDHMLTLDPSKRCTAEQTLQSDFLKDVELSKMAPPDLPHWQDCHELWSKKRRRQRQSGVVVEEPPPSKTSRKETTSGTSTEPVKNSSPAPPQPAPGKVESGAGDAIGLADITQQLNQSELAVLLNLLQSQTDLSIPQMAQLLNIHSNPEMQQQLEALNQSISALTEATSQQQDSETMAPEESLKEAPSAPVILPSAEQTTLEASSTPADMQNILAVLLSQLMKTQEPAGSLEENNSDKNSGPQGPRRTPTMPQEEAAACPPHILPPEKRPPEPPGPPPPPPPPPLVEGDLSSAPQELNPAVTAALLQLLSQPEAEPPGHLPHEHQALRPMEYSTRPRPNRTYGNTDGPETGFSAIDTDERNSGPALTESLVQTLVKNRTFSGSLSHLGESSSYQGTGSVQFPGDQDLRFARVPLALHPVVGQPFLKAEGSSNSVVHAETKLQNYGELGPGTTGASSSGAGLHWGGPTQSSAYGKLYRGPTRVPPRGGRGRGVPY
T2 sequence (O75909 whole entry partner): as the sequence (O75909 whole entry partner) above

As usually defined, the half-life is the time needed for the level to fall by half in the phase considered. As to `Cc1ncsc1-c1ccc([C@H](C)NC(=O)[C@@H]2C[C@@H](O)CN2C(=O)[C@@H](NC(=O)CN2CCN(c3ccc(-c4ccc(N(C(=O)NCc5ccccc5)[C@H]5CC[C@H](Nc6ccc(C#N)cn6)CC5)cc4)cn3)CC2)C(C)(C)C)cc1` [Formula 18], the half-life in data set [1], in data set [2], in data set [3] and in data set [4] was greater than 45 min each time. Besides, the DC50 in data set [5] and in data set [6] was less than 100 nM in each case.

`CC(=O)N(c1ccc(-c2ccc(N3CCN(c4ccc5c(c4)C(=O)N(C4CCC(=O)NC4=O)C5=O)CC3)nc2)cc1)[C@H]1CC[C@H](Nc2ncc3ccccc3n2)CC1` (stereo partly drawn) [Formula 103, N-(4-(6-(4-(2-(2,6-dioxopiperidin-3-yl)-1,3-dioxoisoindolin-5-yl)piperazin-1-yl)pyridin-3-yl)phenyl)-N-((1R,4R)-4-(quinazolin-2-ylamino)cyclohexyl)acetamide]: the DC50 in [7] (setting [13]) was less than 100 nM; in data set [7] (HCT116, colorectal cancer cells, read-out: CDK12 DC50) it was 22 nM; in data set [7] (KASUMI-1, leukemia cells, read-out: CDK12 DC50) it was 15 nM; in data set [7] (MDA-MB-231, breast cancer cells, read-out: CDK12 DC50), 16 nM; in data set [9] (setting [14]), less than 100 nM; in data set [9] (HCT116, colorectal cancer cells, read-out: CDK13 DC50), 19 nM. For the same compound, the DC50 in data set [9] (KASUMI-1, leukemia cells, read-out: CDK13 DC50) came out at 18 nM; in data set [9] (MDA-MB-231, breast cancer cells, read-out: CDK13 DC50), 30 nM. Also, in [8], the “reversal of CCNK degradation by MG132” value was “can reverse the degradation of CDK12/13 and CCNK”. In data set [10], the “reversal of CDK13 degradation by MG132” value was “can reverse the degradation of CDK12/13 and CCNK”. For the same compound, the “reversal of CDK12 degradation by MG132” value in data set [11] was “can reverse the degradation of CDK12/13 and CCNK”.

With `N#Cc1ccc(NC2CCC(N(C(=O)NCc3ccccc3)c3ccc(-c4ccc(=O)n(CCOCCOCCNc5cccc6c5C(=O)N(C5CCC(=O)NC5=O)C6=O)c4)cc3)CC2)nc1` (stereo not shown) [Formula 47], the DC50 in [5] was in the range of 1000 to 3000 nM; in data set [6], 500 to 1000 nM. Besides, the “phosphorylation of serine 2 in the C-terminal domain of RNA polymerase II (CTD-pSer2)” value in data set [12] is reported as “can dose-dependently downregulate the phosphorylation of serine 2”.

On to `CC(=O)N(c1ccc(N2CCN(C3CCN(c4ccc5c(c4)C(=O)N(C4CCC(=O)NC4=O)C5=O)C3)CC2)cc1)[C@H]1CC[C@H](Nc2ncc3ccccc3n2)CC1` (stereo partly drawn) [Formula 125, N-(4-(4-(1-(2-(2,6-dioxopiperidin-3-yl)-1,3-dioxoisoindolin-5-yl)pyrrolidin-3-yl)piperazin-1-yl)phenyl)-N-((1R,4R)-4-(quinazolin-2-ylamino)cyclohexyl)acetamide], for which the DC50 in data set [7] (setting [13]) lay within 1000 to 3000 nM; in [9] (setting [14]) it was 3000 to 10000 nM.

For `CC(=O)N(c1ccc(-c2cnc(N3CCN(c4cc(NC5CCC(=O)NC5=O)ccc4F)CC3)nc2)cc1)[C@H]1CC[C@H](Nc2ncc3ccccc3n2)CC1` (stereo partly drawn) [Formula 130, N-(4-(2-(4-(5-((2,6-dioxopiperidin-3-yl)amino)-2-fluorophenyl)piperazin-1-yl)pyrimidin-5-yl)phenyl)-N-((1R,4R)-4-(quinazolin-2-ylamino)cyclohexyl)acetamide], the DC50 in data set [7] (setting [13]) and in data set [9] (setting [14]) was 1000 to 3000 nM in each case.

As to `CC(=O)N(c1ccc(-c2cnc(N3CCN(c4ccc5c(c4)C(=O)N(C4CCC(=O)NC4=O)C5=O)CC3)nc2)cc1)[C@H]1CC[C@H](Nc2ncc3ccccc3n2)CC1` (stereo partly shown) [Formula 158], the DC50 in [7] (setting [13]) and in data set [9] (setting [14]) was less than 100 nM throughout.

With `CC(=O)N(c1ccc(-c2cnc(OC3CCN(CC(=O)N[C@H](C(=O)N4C[C@H](O)C[C@H]4C(=O)N[C@@H](C)c4ccc(-c5scnc5C)cc4)C(C)(C)C)CC3)nc2)cc1)[C@H]1CC[C@H](Nc2ncc3ccccc3n2)CC1` [Formula 136, (2S,4R)-1-((S)-3,3-dimethyl-2-(2-(4-((5-(4-(N-((1R,4R)-4-(quinazolin-2-ylamino)cyclohexyl)acetamido)phenyl)pyrimidin-2-yl)oxy)piperidin-1-yl)acetamido)butanoyl)-4-hydroxy-N—((S)-1-(4-(4-methylthiazol-5-yl)phenyl)ethyl)pyrrolidine-2-carboxamide], the DC50 in [7] (setting [13]) and in data set [9] (setting [14]) was 500 to 1000 nM throughout.
